Tests used:
[1] = test system: Salmonella choleraesuis; experiment: Bacterial panel testing, MIC by broth microdilution; type: cell-based; details: 20-24 hours growth
Summary of the method: (§1)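 Read-out: clear (no-growth) wells scored after 20-24 h growth to define compound potency. Inoculum was McFarland-matched bacteria from 2-4 h cultures at 37° C in strain-appropriate Mueller-Hinton or Brain Heart infusion media. Compound (10 μg/ml DMSO stock) was serially diluted twofold across plate columns.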

[2] = test system: Enterococcus faecium; experiment: as above; type: cell-based; details: 20-24 hours growth
Summary of the method: as §1

[3] = test system: Staphylococcus aureus; experiment: as above; type: cell-based; details: 20-24 hours growth
Summary of the method: as §1

[4] = test system: Lungs cancer cells A549; experiment: Mammalian cytotoxicity
[5] = test system: Eschericia coli; experiment: Bacterial panel testing, MIC by broth microdilution; type: cell-based; details: 20-24 hours growth
Summary of the method: as §1

[6] = test system: Pseudomonas aeruginosa; experiment: as above; type: cell-based; details: 20-24 hours growth
Summary of the method: as §1

Compound | MIC SC [1] | MIC EF [2] | MIC SA [3] | Mammalian Cytotoxicity IC50 [4] | MIC EC [5] | MIC PA [6]
NC[C@H]1O[C@@H]2O[C@H]3[C@H](O)[C@@H](O)[C@@H](O[C@H]4[C@H](O)[C@@H](O)[C@@H](O[C@H]5[C@H](O)[C@@H](O)[C@@H](O[C@H]6[C@H](O)[C@@H](O)[C@@H](O[C@H]7[C@H](O)[C@@H](O)[C@@H](O[C@H]8[C@H](O)[C@@H](O)[C@@H](O[C@H]1[C@H](O)[C@H]2O)O[C@@H]8CN)O[C@@H]7CN)O[C@@H]6CN)O[C@@H]5CN)O[C@@H]4CN)O[C@@H]3CN | >200 µg/mL | >200 µg/mL | >200 µg/mL | 720 µg/mL |  | 
NCC(=O)NC[C@H]1O[C@@H]2O[C@H]3[C@H](O)[C@@H](O)[C@@H](O[C@H]4[C@H](O)[C@@H](O)[C@@H](O[C@H]5[C@H](O)[C@@H](O)[C@@H](O[C@H]6[C@H](O)[C@@H](O)[C@@H](O[C@H]7[C@H](O)[C@@H](O)[C@@H](O[C@H]8[C@H](O)[C@@H](O)[C@@H](O[C@H]1[C@H](O)[C@H]2O)O[C@@H]8CNC(=O)CN)O[C@@H]7CNC(=O)CN)O[C@@H]6CNC(=O)CN)O[C@@H]5CNC(=O)CN)O[C@@H]4CNC(=O)CN)O[C@@H]3CNC(=O)CN | >200 µg/mL | >200 µg/mL | >200 µg/mL | 690 µg/mL | >200 µg/mL | >200 µg/mL
NCCCCCC(=O)NC[C@H]1O[C@@H]2O[C@H]3[C@H](O)[C@@H](O)[C@@H](O[C@H]4[C@H](O)[C@@H](O)[C@@H](O[C@H]5[C@H](O)[C@@H](O)[C@@H](O[C@H]6[C@H](O)[C@@H](O)[C@@H](O[C@H]7[C@H](O)[C@@H](O)[C@@H](O[C@H]8[C@H](O)[C@@H](O)[C@@H](O[C@H]1[C@H](O)[C@H]2O)O[C@@H]8CNC(=O)CCCCCN)O[C@@H]7CNC(=O)CCCCCN)O[C@@H]6CNC(=O)CCCCCN)O[C@@H]5CNC(=O)CCCCCN)O[C@@H]4CNC(=O)CCCCCN)O[C@@H]3CNC(=O)CCCCCN | >200 µg/mL | >200 µg/mL |  | 780 µg/mL | >200 µg/mL | >200 µg/mL
[N-]=[N+]=NC[C@H]1O[C@@H]2O[C@H]3[C@H](O)[C@@H](O)[C@@H](O[C@H]4[C@H](O)[C@@H](O)[C@@H](O[C@H]5[C@H](O)[C@@H](O)[C@@H](O[C@H]6[C@H](O)[C@@H](O)[C@@H](O[C@H]7[C@H](O)[C@@H](O)[C@@H](O[C@H]8[C@H](O)[C@@H](O)[C@@H](O[C@H]1[C@H](O)[C@H]2O)O[C@@H]8CN=[N+]=[N-])O[C@@H]7CN=[N+]=[N-])O[C@@H]6CN=[N+]=[N-])O[C@@H]5CN=[N+]=[N-])O[C@@H]4CN=[N+]=[N-])O[C@@H]3CN=[N+]=[N-] | >200 µg/mL | >200 µg/mL |  | 2116 µg/mL | >200 µg/mL | >200 µg/mL
O[C@@H]1[C@@H](O)[C@H]2O[C@H]3[C@H](O)[C@@H](O)[C@@H](O[C@H]4[C@H](O)[C@@H](O)[C@@H](O[C@H]5[C@H](O)[C@@H](O)[C@@H](O[C@H]6[C@H](O)[C@@H](O)[C@@H](O[C@H]7[C@H](O)[C@@H](O)[C@@H](O[C@H]8[C@H](O)[C@@H](O)[C@@H](O[C@@H]1[C@@H](CNc1ncccc1OCc1ccccc1)O2)O[C@@H]8CNc1ncccc1OCc1ccccc1)O[C@@H]7CNc1ncccc1OCc1ccccc1)O[C@@H]6CNc1ncccc1OCc1ccccc1)O[C@@H]5CNc1ncccc1OCc1ccccc1)O[C@@H]4CNc1ncccc1OCc1ccccc1)O[C@@H]3CNc1ncccc1OCc1ccccc1 | >200 µg/mL |  |  | 398 µg/mL | >200 µg/mL | >200 µg/mL
OC1C2OC(CNc3nc4ccccc4s3)C(OC3OC(CNc4nc5ccccc5s4)C(OC4OC(CNc5nc6ccccc6s5)C(OC5OC(CNc6nc7ccccc7s6)C(OC6OC(CNc7nc8ccccc8s7)C(OC7OC(CNc8nc9ccccc9s8)C(OC8OC(CNc9nc%10ccccc%10s9)C(O2)C(O)C8O)C(O)C7O)C(O)C6O)C(O)C5O)C(O)C4O)C(O)C3O)C1O (stereo not shown) | >200 µg/mL |  |  | 317 µg/mL | >200 µg/mL | >200 µg/mL
OC1C2OC(CNC3CCNCC3)C(OC3OC(CNC4CCNCC4)C(OC4OC(CNC5CCNCC5)C(OC5OC(CNC6CCNCC6)C(OC6OC(CNC7CCNCC7)C(OC7OC(CNC8CCNCC8)C(OC8OC(CNC9CCNCC9)C(O2)C(O)C8O)C(O)C7O)C(O)C6O)C(O)C5O)C(O)C4O)C(O)C3O)C1O (stereo not shown) | >200 µg/mL |  |  | 378 µg/mL |  | >200 µg/mL
Cc1ccc(CNCC2OC3OC4C(CNCc5ccc(C)cc5)OC(OC5C(CNCc6ccc(C)cc6)OC(OC6C(CNCc7ccc(C)cc7)OC(OC7C(CNCc8ccc(C)cc8)OC(OC8C(CNCc9ccc(C)cc9)OC(OC9C(CNCc%10ccc(C)cc%10)OC(OC2C(O)C3O)C(O)C9O)C(O)C8O)C(O)C7O)C(O)C6O)C(O)C5O)C(O)C4O)cc1 (stereo not shown) | >200 µg/mL |  |  | 376 µg/mL |  | >200 µg/mL
Cl.Cl.Cl.Cl.Cl.Cl.Cl.NCc1ccc(CSCC2OC3OC4C(CSCc5ccc(CN)cc5)OC(OC5C(CSCc6ccc(CN)cc6)OC(OC6C(CSCc7ccc(CN)cc7)OC(OC7C(CSCc8ccc(CN)cc8)OC(OC8C(CSCc9ccc(CN)cc9)OC(OC9C(CSCc%10ccc(CN)cc%10)OC(OC2C(O)C3O)C(O)C9O)C(O)C8O)C(O)C7O)C(O)C6O)C(O)C5O)C(O)C4O)cc1 (stereo not shown) |  | >200 µg/mL | >200 µg/mL | 56.2 µg/mL |  | 
Cl.Cl.Cl.Cl.Cl.Cl.Cl.NCc1cccc(CSCC2OC3OC4C(CSCc5cccc(CN)c5)OC(OC5C(CSCc6cccc(CN)c6)OC(OC6C(CSCc7cccc(CN)c7)OC(OC7C(CSCc8cccc(CN)c8)OC(OC8C(CSCc9cccc(CN)c9)OC(OC9C(CSCc%10cccc(CN)c%10)OC(OC2C(O)C3O)C(O)C9O)C(O)C8O)C(O)C7O)C(O)C6O)C(O)C5O)C(O)C4O)c1 (stereo not shown) | >200 µg/mL | >200 µg/mL |  | 54.3 µg/mL |  | 
OC1C2OC(CNC3CCCCC3)C(OC3OC(CNC4CCCCC4)C(OC4OC(CNC5CCCCC5)C(OC5OC(CNC6CCCCC6)C(OC6OC(CNC7CCCCC7)C(OC7OC(CNC8CCCCC8)C(OC8OC(CNC9CCCCC9)C(O2)C(O)C8O)C(O)C7O)C(O)C6O)C(O)C5O)C(O)C4O)C(O)C3O)C1O (stereo not shown) | >200 µg/mL |  |  | 373 µg/mL |  | >200 µg/mL
COc1ccc(CNCC2OC3OC4C(CNCc5ccc(OC)cc5)OC(OC5C(CNCc6ccc(OC)cc6)OC(OC6C(CNCc7ccc(OC)cc7)OC(OC7C(CNCc8ccc(OC)cc8)OC(OC8C(CNCc9ccc(OC)cc9)OC(OC9C(CNCc%10ccc(OC)cc%10)OC(OC2C(O)C3O)C(O)C9O)C(O)C8O)C(O)C7O)C(O)C6O)C(O)C5O)C(O)C4O)cc1 (stereo not shown) | >200 µg/mL |  |  | 297 µg/mL |  | >200 µg/mL
